Reference: paper PMC6486608, “A cell-penetrating peptide blocks Toll-like receptor-mediated downstream signaling and ameliorates autoimmune and inflammatory diseases in mice” (Experimental & Molecular Medicine, 2019)
Ends that are not written are not given here.

T1: TLR4 TIR domain BB loop peptide (Homo sapiens)
T1 chain: RDFIPGVAIAA


Key:
[1] = tested on: TLR4 (HEK-Blue hTLR4 cells); experiment: SEAP activity (NF-κB), HEK-Blue hTLR4, LPS; format: cell-based; settings: n ≥ 3; for LPS-induced NF-κB activity (SEAP), peptides in the absence of CPP: not conjugated with CPP
Procedure: (§1) HEK-Blue-hTLR4 cells were seeded at a density of 2 × 10^5 cells/well and grown overnight in 24-well plates (BD Biosciences). The next day, the supernatant was removed, and the medium was replaced with fresh medium. Aliquots of supernatants (200 µl) from the treated cells were transferred to microcentrifuge tubes and heated for 10 min at 65 °C on a heating block (FINEPCR Co., Seoul, Korea). The supernatants were then transferred into new 96-well plates (BD Biosciences), and SEAP production was quantified using the HEK-Blue detection kit (InvivoGen). HEK-Blue IL-1R cells were seeded at a density of 2 × 10^5 cells/well and grown in 24-well plates (BD Biosciences) overnight, and SEAP production was measured by means of QUANTI-Blue (InvivoGen). Absorbance was measured on a microplate reader (spectrophotometry system; Molecular Devices Inc., Silicon Valley, CA, USA) or a Cytation 5 Cell Imaging Multi-Mode Reader (Bio-Tek Instruments, Winooski, VT, USA) at 620 nm.
The TLR4-mediated response to LPS leads to a direct interaction between the TIR domains of TIRAP and MyD88, resulting in the subsequent activation of the MyD88-dependent downstream cascade. On the other hand, LPS-induced activation of TLR4 can cause the interaction between the TIR domains of TRAM and TRIF, which thereafter initiates MyD88-independent downstream signaling. Multiple peptides were designed from the TIR domain of TIRAP to possibly target the TIR domain of TLR4. […] The inhibitory effects of the peptides (TIP1 and TIP2) in the absence of CPP were evaluated by measuring the SEAP activity in HEK-Blue hTLR4 cells. […] To evaluate the specific binding of TIP1 to TLRs, we measured the NF-κB activity and protein expression of NF-κB and MAPKs by the SEAP activity assay and western blotting in HEK-Blue IL-1R cells. […]

[2] = tested on: TLR signaling (RAW 264.7 cells); experiment: TNF-α ELISA, RAW 264.7, peptides not conjugated with CPP; format: cell-based, mouse; settings: TIP1 without CPP 12.5, 25, and 50 µM (Fig. 2l); Poly(I:C) 24 h (Supplementary Fig. 1c)
Procedure: RAW 264.7, THP1, and mBMDM cells were seeded at a density of 2 × 10^5 cells/well in 96-well plates (BD Biosciences) or at 5 × 10^5 cells/well in 24-well plates (BD Biosciences) and were grown overnight. After 24 h of treatment, IFN-β secretion was measured by means of the LEGEND MAX Mouse IFN-β precoated ELISA Kit (BioLegend), IL-6 secretion was assessed by a Mouse IL-6 ELISA MAX Deluxe (BioLegend) or Mouse IL-6 Platinum ELISA (eBioscience), TNF-α production was assessed using the Mouse TNF alpha ELISA Ready-SET-Go! kit (eBioscience), and the IL-1β cytokine level was measured with the Mouse or Human IL-1β ELISA Ready-SET-Go! kit (eBioscience). hBMNCs were seeded at a density of 4 × 10^4/well in 96-well plates (BD Biosciences) and then grown overnight. After 24 h of treatment, the secretion levels of IL-6 and TNF-α were assessed using Human IL-6 ELISA MAX Deluxe (BioLegend) and Human TNF alpha ELISA MAX Deluxe (BioLegend), respectively. The plates were then analyzed on a microplate spectrophotometer system (Molecular Devices) at the appropriate wavelength.
Fig. 2 Inhibitory effects of TIP1 on TLR signaling pathways. a Cell viability was measured by the MTT assay upon the treatment of RAW 264.7 cells with various concentrations of TIP1 (12.5, 25, or 50 µM) for 24 h. […] The secretion of IFN-β was measured by an ELISA. q hPBMCs were treated with TIP1 in the presence or absence of LPS. […]

[3] = tested on: IL-1R (HEK-Blue IL-1R cells); experiment: SEAP activity (NF-κB), HEK-Blue IL-1R, IL-1β; format: cell-based; settings: peptide 1 h before IL-1β (300 pg/ml), 24 h; n ≥ 3
Procedure: as §1
The TLR4-mediated response to LPS leads to a direct interaction between the TIR domains of TIRAP and MyD88, resulting in the subsequent activation of the MyD88-dependent downstream cascade. […] The inhibitory effects of the peptides (TIP1 and TIP2) in the absence of CPP were evaluated by measuring the SEAP activity in HEK-Blue hTLR4 cells. […]

[4] = molecular target: T1, TLR4 TIR domain BB loop peptide; experiment: SPR

Row | Molecule | LPS-induced NF-κB activity (SEAP), peptides in the absence of CPP [1] | inhibitory effect on TNF-α secretion after removal of CPP [2] | LPS-induced SEAP activity (NF-κB) ([1]; CPP-conjugated peptide, 12.5 to 50 μM, peptide 1 h before LPS, 24 h) | IL-1β-induced NF-κB activity (SEAP) [3] | Kd [4] [µM]
1 | SHCRVLLI [TIP1 without CPP, TIP1 peptide not conjugated with CPP] | neither peptide significantly inhibited NF-κB activity | loss of the inhibitory effect |  |  | 
2 | TIPLLS [TIP2, TIPLLS from the TIR domain of TIRAP, conjugated in tandem to a cell-penetrating peptide (…) at N terminus] |  |  | did not hinder LPS-induced NF-κB activity | did not exert any significant inhibitory effects | 
3 | TIPLLS [TIP2 without CPP, TIP2 peptide not conjugated with CPP] | neither peptide significantly inhibited NF-κB activity | loss of the inhibitory effect |  |  | 
4 | RQIKIWFQNRRMKWKKSHCRVLLI (also: biotinylated and immobilized) [TIP1 (TIRAP TIR-derived decoy peptide with N-terminal antennapedia CPP)] |  |  |  |  | 40.2
